Source: US20230212144A1, “5-MEMBERED HETEROARYL DERIVATIVE CONTAINING AT LEAST ONE N, AND PHARMACEUTICAL COMPOSITION FOR PREVENTING OR TREATING MENTAL DISORDERS, CONTAINING SAME AS ACTIVE INGREDIENT” (DAEGU-GYEONGBUK MEDICAL INNOVATION FOUNDATION, priority 2020, published 2023)

Key:
[1] = target: dopamine transporter (DAT) (Homo sapiens, UniProt Q01959); experiment: Dopamine reuptake inhibition, [3H]-DA, HEK-293 cells transfected with dopamine transporter cDNA; conditions: for Triple reuptake inhibition (Ratio %) DAT: compound 1 μM, relative to control without compound (100%), lower value = stronger inhibition
Description: (§1) After removing the medium, each compound of Examples or Comparative Examples diluted to 1 μM in uptake buffer was added to a concentration of 200 μL/well and cultured at 37° C. for 15 minutes. 100 μL of uptake buffer containing 20-30 nM [3H]-DA was added and cultured at 37° C. for 5 minutes. The reaction solution was quickly removed and washed three times with 1 mL ice-cold uptake buffer. After dissolving the resultant in 1% SDS (0.5 mL), the degree of binding of radioisotope-labeled dopamine to the transporter was measured.
(§2) In addition, when evaluating the reuptake inhibitory effect on dopamine, norepinephrine, and serotonin, the same method was performed without treating each compound of Examples or Comparative Examples as a control, the degree of binding of radioisotope-labeled dopamine, norepinephrine, and serotonin to the transporter was measured, and by using this as a reference (100%), the triple reuptake inhibitory effect was evaluated as a relative ratio (Ratio %). That is, in the control group, the binding of dopamine, norepinephrine, and serotonin to transporters is not inhibited, but when each compound of Examples is treated and thus the binding is inhibited, the Ratio % value decreases.

[2] = target: serotonin transporter (SERT) (Homo sapiens, UniProt P31645); experiment: Serotonin reuptake inhibition, [3H]-5-HT, cells transfected with 5-HT transporter cDNA; conditions: for Triple reuptake inhibition (Ratio %) SERT: compound 1 μM, relative to control without compound (100%), lower value = stronger inhibition
[3] = target: norepinephrine transporter (NET) (Homo sapiens, UniProt P23975); experiment: Norepinephrine reuptake inhibition, [3H]-NE, cells transfected with NE transporter cDNA; conditions: for Triple reuptake inhibition (Ratio %) NET: compound 1 μM, relative to control without compound (100%), lower value = stronger inhibition
Sequence of norepinephrine transporter (NET) (P23975 whole entry, species assumed): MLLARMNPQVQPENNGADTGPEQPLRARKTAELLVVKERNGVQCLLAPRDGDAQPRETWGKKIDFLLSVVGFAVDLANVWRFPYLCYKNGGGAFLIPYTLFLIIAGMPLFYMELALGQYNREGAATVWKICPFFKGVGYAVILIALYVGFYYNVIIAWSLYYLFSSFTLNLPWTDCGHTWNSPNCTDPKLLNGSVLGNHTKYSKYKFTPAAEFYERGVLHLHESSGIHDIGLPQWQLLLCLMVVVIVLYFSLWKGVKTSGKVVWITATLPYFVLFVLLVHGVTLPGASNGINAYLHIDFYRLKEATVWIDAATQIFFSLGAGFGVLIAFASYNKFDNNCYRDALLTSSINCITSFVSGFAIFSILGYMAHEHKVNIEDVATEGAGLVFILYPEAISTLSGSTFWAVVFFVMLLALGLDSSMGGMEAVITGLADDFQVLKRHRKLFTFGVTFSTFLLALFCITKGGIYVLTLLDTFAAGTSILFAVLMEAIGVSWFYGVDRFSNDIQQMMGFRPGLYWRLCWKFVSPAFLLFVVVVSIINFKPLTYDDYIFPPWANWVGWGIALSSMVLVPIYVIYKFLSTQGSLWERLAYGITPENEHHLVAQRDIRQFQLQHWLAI
Description: as §1
For norepinephrine(NE) and serotonin(5-HT), the degree of binding of radioisotope-labeled norepinephrine or serotonin to the transporter was measured in the same manner as above, except that cells transfected with NE or 5-HT transporter cDNA were used and [3H]-NE or [3H]-5-HT was used as a substrate.
as §2

Sequence of serotonin transporter (SERT) (P31645 whole entry, species assumed): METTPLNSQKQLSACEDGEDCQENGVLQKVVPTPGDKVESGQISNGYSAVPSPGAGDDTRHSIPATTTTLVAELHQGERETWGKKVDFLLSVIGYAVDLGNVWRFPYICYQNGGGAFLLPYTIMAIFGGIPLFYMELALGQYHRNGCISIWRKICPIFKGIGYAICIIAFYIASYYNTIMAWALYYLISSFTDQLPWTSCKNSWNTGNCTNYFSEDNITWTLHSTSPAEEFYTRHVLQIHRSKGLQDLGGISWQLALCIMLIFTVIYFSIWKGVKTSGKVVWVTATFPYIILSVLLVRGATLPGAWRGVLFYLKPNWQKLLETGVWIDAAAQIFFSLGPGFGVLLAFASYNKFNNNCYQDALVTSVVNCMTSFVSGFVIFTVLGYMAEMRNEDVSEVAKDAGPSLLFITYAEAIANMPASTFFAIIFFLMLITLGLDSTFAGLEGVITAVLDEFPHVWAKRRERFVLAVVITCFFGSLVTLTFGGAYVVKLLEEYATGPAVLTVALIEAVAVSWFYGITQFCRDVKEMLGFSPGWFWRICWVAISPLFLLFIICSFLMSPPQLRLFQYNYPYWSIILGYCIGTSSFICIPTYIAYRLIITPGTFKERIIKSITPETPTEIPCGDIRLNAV
Sequence of dopamine transporter (DAT) (Q01959 whole entry, species assumed): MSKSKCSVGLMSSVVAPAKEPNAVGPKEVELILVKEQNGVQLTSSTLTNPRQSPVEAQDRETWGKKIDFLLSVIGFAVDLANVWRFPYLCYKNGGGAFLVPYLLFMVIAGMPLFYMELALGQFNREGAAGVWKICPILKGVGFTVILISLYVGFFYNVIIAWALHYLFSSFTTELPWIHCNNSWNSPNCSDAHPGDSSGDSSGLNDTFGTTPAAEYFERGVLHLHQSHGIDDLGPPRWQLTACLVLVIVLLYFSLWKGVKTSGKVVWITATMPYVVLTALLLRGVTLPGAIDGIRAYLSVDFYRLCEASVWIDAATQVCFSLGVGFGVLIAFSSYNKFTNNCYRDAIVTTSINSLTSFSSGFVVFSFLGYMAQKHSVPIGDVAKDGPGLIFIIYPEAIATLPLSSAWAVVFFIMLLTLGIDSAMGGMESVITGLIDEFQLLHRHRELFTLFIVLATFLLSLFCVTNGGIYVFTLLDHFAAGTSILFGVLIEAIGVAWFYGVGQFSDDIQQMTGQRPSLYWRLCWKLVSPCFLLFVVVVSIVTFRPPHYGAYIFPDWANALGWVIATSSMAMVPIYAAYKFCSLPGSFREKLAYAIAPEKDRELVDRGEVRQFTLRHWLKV

| SMILES | Triple reuptake inhibition (Ratio %) DAT [1] [%] | IC50 [2] [nM] | Triple reuptake inhibition (Ratio %) SERT [2] [%] | Triple reuptake inhibition (Ratio %) NET [3] [%] | IC50 [1] [nM] | IC50 [3] [nM] |
| --- | --- | --- | --- | --- | --- | --- |
| COc1ccc2c(-c3nnc(CN4CCC(Cc5ccc(Cl)c(Cl)c5)CC4)[nH]3)c[nH]c2c1 [Example 59, 3-(5-((4-(3,4-dichlorobenzyl)piperidin-1-yl)methyl)-4H-1,2,4-triazol-3-yl)-6-methoxy-1H-indole] | 75.06 | 226 | 31.88 | 77.82 |  |  |
| COC(=O)c1cccc2c(-c3nnc(CN4CCC(Cc5ccc(Cl)c(Cl)c5)CC4)[nH]3)c[nH]c12 [Example 60, methyl 3-(5-((4-(3,4-dichlorobenzyl)piperidin-1-yl)methyl)-4H-1,2,4-triazol-3-yl)-1H-indol-7-carboxylate] | 94.44 | 1870 | 61.70 | 95.63 |  |  |
| FC(F)(F)Oc1ccc(-c2nnc(CN3CCC(Cc4ccc(Cl)c(Cl)c4)CC3)[nH]2)cc1 [Example 61, 4-(3,4-dichlorobenzyl)-1-((5-(4-(trifluoromethoxy)phenyl)-4H-1,2,4-triazol-3-yl)methyl)piperidine] | 59.39 |  | 82.77 | 48.25 |  |  |
| FC(F)(F)c1ccc(-c2nnc(CN3CCC(Cc4ccc(Cl)c(Cl)c4)CC3)[nH]2)cc1 [Example 62, 4-(3,4-dichlorobenzyl)-1-((5-(4-(trifluoromethyl)phenyl)-4H-1,2,4-triazol-3-yl)methyl)piperidine] | 52.96 |  | 79.73 | 36.41 |  |  |
| COC(=O)c1ccc(-c2nnc(CN3CCC(Cc4ccccc4)CC3)[nH]2)cc1N [Example 63, methyl 2-amino-4-(5-((4-benzylpiperidin-1-yl)methyl)-4H-1,2,4-triazol-3-yl)benzoate] | 26.54 | 1840 | 61.10 | 27.25 | 221 | 327 |
| Fc1ccc2[nH]c(-c3nnc(CN4CCN(Cc5ccccc5)CC4)[nH]3)cc2c1 [Example 64, 2-(5-((4-benzylpiperazin-1-yl)methyl)-4H-1,2,4-triazol-3-yl)-5-fluoro-1H-indole] | 32.65 |  | 91.98 | 64.96 |  |  |
| Clc1ccc2[nH]c(-c3nnc(CN4CCN(Cc5ccccc5)CC4)[nH]3)cc2c1 [Example 65, 2-(5-((4-benzylpiperazin-1-yl)methyl)-4H-1,2,4-triazol-3-yl)-5-chloro-1H-indole] | 28.61 |  | 92.53 | 67.11 |  |  |
